Test results from patent US12410155B2, “Salt form and crystal form of tetrahydrocyclohepta indazole compound” (Zhejiang Yangli Pharmaceutical Technology Co., Ltd., priority 2021, dated 2025).
Where two headings read alike, the source gives them in different places.

Key:
[1] = Pharmacokinetic study in rats; type: in vivo; conditions: both sexes, Sprague-Dawley, rat, plasma
Experimental: (3) Pharmacokinetic Study in Rats
Objective: To determine the concentration of the test compound in plasma at various time points after intravenous and intragastric administration in male and female Sprague-Dawley rats using the LC/MS/MS method.
An appropriate amount of the sample was weighed and prepared into a 0.2 mg/ml solution, and stirred until a clear solution was obtained, with 20% SBE-β-CD as the vehicle.
Administration: After an overnight fast, the IV group received intravenous administration at a dose of 1 mg/kg; the PO group received intragastric administration at a dose of 2 mg/kg.
For the intravenous injection group, male and female Sprague-Dawley rats were administered the test compound, and blood samples (200 μL) were collected from the jugular vein at 0.0830, 0.250, 0.500, 1.00, 2.00, 4.00, 6.00, 8.00, 24.0, 32.0, and 48.0 hours post-administration. The samples were placed into commercially available anticoagulant tubes pre-filled with EDTA-K2. For the intragastric administration group, after administering the test compound, blood samples (200 μL) were collected from the jugular vein at 0.250, 0.500, 1.00, 2.00, 4.00, 6.00, 8.00, 24.0, 32.0, and 48.0 hours. These samples were also placed into commercially available anticoagulant tubes pre-filled with EDTA-K2. Following centrifugation (3,200 g, 4° C., 10 minutes), the plasma was transferred to pre-chilled centrifuge tubes, flash-frozen in dry ice, and stored in an ultra-low temperature freezer at −60° C. or lower until LC-MS/MS analysis. Animals were allowed to eat 4 hours post-dosing. The concentration of the test compound in the plasma of rats after intravenous and intragastric administration was determined using the LC/MS/MS method.

[2] = Pharmacokinetic study in Beagle dogs; type: in vivo; conditions: both sexes, dog, plasma, Beagles
Experimental: (4) Pharmacokinetic Study in Beagle Dogs
Objective: To determine the concentration of the test compound in plasma at various time points after intravenous and intragastric administration in male and female Beagle dogs using the LC/MS/MS method.
An appropriate amount of the sample was weighed and prepared into 0.2 mg/mL and 0.3 mg/mL solutions, stirred until a clear solution was obtained, with 20% SBE-β-CD as the vehicle.
Administration: After an overnight fast, the IV group received intravenous administration at a dose of 0.3 mg/kg; the PO group received intragastric administration at a dose of 1 mg/kg.
For the intravenous injection group, Beagle dogs were administered the test compound, and blood samples (800 μL) were collected from the peripheral vein at 0.25, 0.5, 1, 2, 4, 6, 8, 24, 32, 48, 72, and 96 hours post-administration. The samples were placed into commercially available anticoagulant tubes pre-filled with EDTA-K2. For the intragastric administration group, after administering the test compound, blood samples (800 μL) were collected from the peripheral vein at 0.25, 0.5, 1, 2, 4, 6, 8, 24, 32, 48, 72, and 96 hours. These samples were also placed into commercially available anticoagulant tubes pre-filled with EDTA-K2. Following centrifugation (3,200 g, 2-8° C., 10 minutes), the plasma was transferred to pre-chilled centrifuge tubes, flash-frozen in dry ice, and stored in an ultra-low temperature freezer at −60° C. or lower until LC-MS/MS analysis. Animals were allowed to eat 4 hours post-dosing. The concentration of the test compound in the plasma of Beagle dogs after intravenous and intragastric administration was determined using the LC/MS/MS method.

[3] = Pharmacokinetic study in mice; type: in vivo; conditions: female, Balb/c, mouse, plasma
Experimental: (2) Pharmacokinetic Study in Mice
Objective: To determine the concentration of the test compound in plasma at various time points after intravenous and intragastric administration in female Balb/c mice using the LC/MS/MS method. To investigate the pharmacokinetic behavior of the crystal form C of the compound of formula (I) in mice and to evaluate its pharmacokinetic characteristics.
Administration: After an overnight fast, the IV group received intravenous administration at a dose of 5 mg/kg; the PO group received intragastric administration at a dose of 10 mg/kg.
For the intravenous injection group, female Balb/c mice were administered the test compound, and blood samples (30 μL) were collected from the saphenous vein at 0.0833, 0.25, 0.5, 1, 2, 4, 8, and 24 hours post-administration. The samples were placed into commercially available anticoagulant tubes pre-filled with EDTA-K2. For the intragastric administration group, after administering the test compound, blood samples (30 μL) were collected from the jugular vein at 0.25, 0.5, 1, 2, 4, 8, 12, and 24 hours. These samples were also placed into commercially available anticoagulant tubes pre-filled with EDTA-K2. Following centrifugation (3,200 g, 4° C., 10 minutes), the plasma was transferred to pre-chilled centrifuge tubes, flash-frozen in dry ice, and stored in an ultra-low temperature freezer at −60° C. or lower until LC-MS/MS analysis. Animals were allowed to eat 4 hours post-dosing. The concentration of the test compound in the plasma of mice after intravenous and intragastric administration was determined using the LC/MS/MS method.

[4] = tested on: human breast cancer MCF-7 cell subcutaneous xenograft tumor; type: in vivo; conditions: for Tumor volume (mm^3) (Day 0): Day 0 (at grouping); for RTV (Day 21) / Tumor volume (mm^3) (Day 21) / T/C (%) / TGI (%): Day 21
Experimental: (1) In Vivo Pharmacodynamic Study of Breast Cancer MCF-7 Cell Subcutaneous Xenograft Tumor BALB/c Nude Mouse Model
Objective: This study aimed to evaluate the in vivo efficacy of the crystal form C of the compound of formula (I) using a human breast cancer MCF-7 cell subcutaneous xenograft tumor model in nude mice.
Routine digestion with trypsin-EDTA (Gibco) was performed twice a week for passaging.
Cell inoculation: Estrogen pellets (0.36 mg/pellet; IRA) were subcutaneously inoculated into the left dorsum of each mouse. Three days later, 0.2 mL (1×10^7 cells) of MCF-7 cells (mixed with Matrigel; CORNING, volume ratio 1:1) were subcutaneously inoculated into the right dorsum of each mouse. When the average tumor volume reached 188 mm^3, the mice were grouped and the administration of compounds began.
An appropriate amount of the compound of formula (I) was weighed and prepared into 0.1, 0.3, 1, and 3 mg/mL solutions. […] Fulvestrant was used as the commercially available injection Faslodex.
The antitumor efficacy of the compounds was evaluated using Tumor Growth Inhibition (TGI, %) and relative tumor proliferation rate (T/C, %).
The Q value of combined medication index was calculated using the Jin formula. The criteria for judgment were as follows: a Q value of 0.85 to 1.15 indicated […] (+); a Q value>1.15 to 2.0 indicated enhancement (++); a Q value<0.85 to 0.55 indicated antagonism (−); and a Q value<0.55 indicated significant antagonism (−−). The formula was Q=Ea+b/(Ea+Eb−Ea×Eb), where Ea+b was the tumor inhibition rate of the combined medication group, and Ea and Eb were the tumor inhibition rates of the single medication groups, respectively.
Inter-group comparisons were analyzed using one-way ANOVA. […] A p value<0.05 was considered to indicate a significant difference.

[5] = in vivo; cited from earlier work
breast cancer = conditions: intramuscular injection; cited from earlier work

## CS(=O)(=O)O.FCCCN1CC[C@H](Nc2cnc(C3=C(CC(F)(F)F)CCCc4c3ccc3[nH]nc(F)c43)cn2)C1
[1]; IV, 1 mg/kg
  AUC(0-t): 1710 nM·h
  clearance: 1.33 L/h/kg
  half-life: 10.6 h
[1]; IV, 1 mg/kg, read-out: Vdss
  Vd: 13.6 L/kg
[1]; PO, 2 mg/kg
  AUC(0-t): 1630 nM·h
  Cmax: 0.0877 µM
  bioavailability: 47.7%
  half-life: 10.3 h
[2]; IV, 0.3 mg/kg
  AUC(0-t): 1310 nM·h
  clearance: 0.228 L/h/kg
  half-life: 24.2 h
[2]; IV, 0.3 mg/kg, read-out: Vdss
  Vd: 7.48 L/kg
[2]; PO, 1 mg/kg
  AUC(0-t): 2270 nM·h
  Cmax: 0.061 µM
  bioavailability: 52%
  half-life: 21.6 h

## FCCCN1CC[C@H](Nc2cnc(C3=C(CC(F)(F)F)CCCc4c3ccc3[nH]nc(F)c43)cn2)C1
[3]; IV, 5 mg/kg
  AUC(0-t): 5270 nM·h
  clearance: 1.81 L/h/kg
  half-life: 5.16 h
[3]; IV, 5 mg/kg, read-out: Vdss
  Vd: 11.1 L/kg
[3]; PO, 10 mg/kg
  AUC(0-t): 5860 nM·h
  Cmax: 0.779 µM
  bioavailability: 55.4%
  half-life: 4.72 h
[4]; 1 mg/kg, PO, QD
  ORR %: 0%
  Tumor volume (mm^3) (Day 0): 188 ± 12 mm^3
  RTV (Day 21): 1.82 ± 0.12
  Tumor volume (mm^3) (Day 21): 340 ± 30 mm^3
[4]; 3 mg/kg, PO, QD
  DCR %: 100%
  ORR %: 0%
  Tumor volume (mm^3) (Day 0): 188 ± 13 mm^3
  RTV (Day 21): 0.99 ± 0.11
  Tumor volume (mm^3) (Day 21): 179 ± 14 mm^3
[4]; 10 mg/kg, PO, QD
  Tumor volume (mm^3) (Day 0): 188 ± 12 mm^3
  RTV (Day 21): 0.75 ± 0.09
  Tumor volume (mm^3) (Day 21): 140 ± 18 mm^3
[4]; 30 mg/kg, PO, QD
  Tumor volume (mm^3) (Day 0): 188 ± 12 mm^3
  RTV (Day 21): 0.64 ± 0.07
  Tumor volume (mm^3) (Day 21): 121 ± 13 mm^3
[4]; 1 to 30 mg/kg, PO, QD
  Tolerability in tumor-bearing mice: tolerated the crystal form C of the compound of formula (I) well

## C[C@]12CC[C@@H]3c4ccc(O)cc4C[C@@H](CCCCCCCCC[S+]([O-])CCCC(F)(F)C(F)(F)F)[C@H]3[C@@H]1CC[C@@H]2O (stereo partly drawn) [Fulvestrant, reference compound]
[4]; 5 mg/mouse, SC, QW
  DCR %: 0%
  Tumor volume (mm^3) (Day 0): 188 ± 12 mm^3
  RTV (Day 21): 3.12 ± 0.31
  T/C (%): 46.9%
  TGI (%): 60.9%
  Tumor volume (mm^3) (Day 21): 593 ± 79 mm^3
[4]; 5 mg/mouse, SC, QW, listed as fulvestrant
  Tumor volume (mm^3) (Day 21): 593 mm^3
[5]
  oral bioavailability: near-zero
Breast cancer
  breast cancer patients showing a clinical response: about 50%

## CC(=O)c1c(C)c2cnc(Nc3ccc(N4CCNCC4)cn3)nc2n(C2CCCC2)c1=O [Palbociclib, reference compound]
[4]; 25 mg/kg, PO, QD
  DCR %: 12.5%
  ORR %: 0%
  Tumor volume (mm^3) (Day 0): 188 ± 12 mm^3
  RTV (Day 21): 4.26 ± 0.51
  T/C (%): 64.0%
  TGI (%): 42.8%
  Tumor volume (mm^3) (Day 21): 781 ± 77 mm^3
[4]; 25 mg/kg, PO, QD, listed as palbociclib
  Tumor volume (mm^3) (Day 21): 781 mm^3
